The source of these data is PubChem BioAssay AID624452 (Sanford-Burnham Center for Chemical Genomics, 2012).

The data set relates to human liver microsomes, compound remaining, LC-MS. The data set can be described thus: human microsomal compound turnover – biochemical, with and without NADPH, LC-MS, set 2, ADME assay (AID 624452).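 Note: compound left measured after 60 min microsomal incubation at 37 °C.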 As to conditions: measured here: stability without NADPH control; at 1 µM.
Molecule `CCCC(=O)Nc1cccc(NC(=O)c2ccccc2Br)c1` displayed a percent remaining without NADPH of 71.2%.

With `COc1ccc(OC)c(-c2nnc3n2N=C(c2ccc(OC)c(OC)c2)CS3)c1`, the percent remaining without NADPH came to 79.3%.

The molecule `O=C1NCCCc2c1oc1ccc(O)cc21` came in with a percent remaining without NADPH of 63%.

`COc1ccc(Sc2ccc(NC(=O)c3ccccc3Cl)cc2C#N)cc1` registered a percent remaining without NADPH of 64.4%.

Regarding `CC(C)C(=O)NC(c1ccco1)c1ccc2cccnc2c1O` (centres undefined), the percent remaining without NADPH was found to be 76.4%.

In turn, `O=C(c1ccccn1)N(Cc1cccs1)C1(C(=O)NC2CCCCC2)CCCCC1` came in with a percent remaining without NADPH of 70.6%.

`O=C(O)c1ccccc1OCc1ccccc1Br` came in with a percent remaining without NADPH of 70%.

In the case of `c1ccc(-c2nnc(N3CCOCC3)nc2-c2ccccc2)cc1`, the percent remaining without NADPH came out at 79.8%.

In turn, `CCOC(=O)C(C)Oc1cccc2c(=O)n(CC(=O)Nc3ccc4c(c3)OCCO4)ccc12` (centres undefined) gave a percent remaining without NADPH of 75.6%.

Turning to `CCc1nnc(NC(=O)c2ccc(NS(=O)(=O)c3ccccc3)cc2)s1`, the percent remaining without NADPH was found to be 76.8%.

`Cc1cc(C(=O)CN2C(=O)CCC2=O)c(C)n1Cc1ccccc1` returned a percent remaining without NADPH of 72.6%.

In turn, `Cc1cc(C)nc(-n2nc(C)c(Sc3ccc(F)cc3)c2N)n1` gave a percent remaining without NADPH of 79.4%.

Molecule `Cn1cnc([N+](=O)[O-])c1Sc1ncnc2nc[nH]c12` had a percent remaining without NADPH of 66.4%.

`O=S1(=O)Nc2c(ccc3cccnc23)-c2ccccc21` came in with a percent remaining without NADPH of 68%.

Molecule `Cc1cc2c(s1)c1cnn(Cc3ccccc3F)c(=O)c1n2C` returned a percent remaining without NADPH of 64.4%.

`CCN1CCN(c2nc3ccccc3nc2C(C#N)C(=O)OC2CCCCC2)CC1` (centres undefined): the percent remaining without NADPH was 80.8%.

For the molecule `O=C(COC(=O)C12CC3CC(CC(C3)C1)C2)NCc1ccco1`, the percent remaining without NADPH is 100%.

Regarding `O=C(O)CCC(NS(=O)(=O)c1ccc(-c2ccccc2)cc1)C(=O)O` (centres undefined), the percent remaining without NADPH was 74.2%.

`Cc1ccc(-n2c(N)c(C#N)c(-c3ccccc3)c(C#N)c2=O)cc1` came in with a percent remaining without NADPH of 78.9%.

For the molecule `COc1ccc(S(=O)(=O)N2CCN(S(=O)(=O)c3ccc4c(c3)OCCO4)CC2)cc1`, the percent remaining without NADPH is 55.8%.

In turn, `O=C(COc1ccccc1Br)NCCc1nc2ccccc2[nH]1` had a percent remaining without NADPH of 79.6%.

`C=CCn1c(SCC(=O)c2ccc(O)c(O)c2)nnc1-c1ccccc1OC` returned a percent remaining without NADPH of 65%.

On to `Cn1nnnc1Sc1ncnc2scc(-c3ccccc3)c12`, for which the percent remaining without NADPH came out at 67.5%.

The molecule `Cc1cccc(-n2cnc3cc(C(=O)N4CCCCC4)ccc32)c1` came in with a percent remaining without NADPH of 70%.

`CC1CCCN(C(C(=O)Nc2ccc3c(c2)OCCO3)c2ccccc2)C1` (centres undefined) showed a percent remaining without NADPH of 79.7%.

Regarding `O=C(O)c1cccnc1SCCc1ccccc1`, the percent remaining without NADPH was found to be 74.9%.

In the case of `CSc1nc(-c2ccc(C)cc2)nc(C(Cl)Cl)n1`, the percent remaining without NADPH is 42.1%.

In turn, `Cc1ccc(S(=O)(=O)NCc2ccc(C(=O)NCCN(Cc3ccccc3)C(C)C)cc2)cc1` showed a percent remaining without NADPH of 80.3%.

Consider `CCc1oc2ccccc2c1C(=O)c1cc(Br)c(O)c(Br)c1`, for which the percent remaining without NADPH stood at 75.6%.

For the molecule `Brc1cc2c(cc1C1Nc3ccccc3C3C=CCC31)OCO2` (centres undefined), the percent remaining without NADPH was found to be 65.5%.

In turn, `Cc1ccccc1N1CCN(c2ncnc3c2cnn3Cc2ccc(Cl)cc2)CC1` had a percent remaining without NADPH of 58%.

With `Cc1ccc(C)c(NS(=O)(=O)c2cc(C(=O)Nc3ccccc3-c3ccccc3)ccc2Cl)c1`, the percent remaining without NADPH was found to be 75.9%.

Regarding `Cc1ccc(S(=O)(=O)C(c2ccccc2)c2c(C)noc2C)cc1` (centres undefined), the percent remaining without NADPH was determined as 69.4%.

As for `Cc1nc(SCc2nc3ccccc3[nH]2)c2oc3ccccc3c2n1`, the percent remaining without NADPH is 70.5%.

In turn, `O=c1oc2c(O)c(O)cc3c(=O)oc4c(O)c(O)cc1c4c23` displayed a percent remaining without NADPH of 93.1%.

Molecule `COc1cccc(-c2nc(-c3ccc(NC(=O)Cc4ccccc4OC)cc3)no2)c1` returned a percent remaining without NADPH of 69.1%.

`CS(=O)(=O)c1ccc(C(=O)OCC(=O)NC23CC4CC(CC(C4)C2)C3)cc1[N+](=O)[O-]` came in with a percent remaining without NADPH of 81%.

`CCOc1ccc(-c2nc(-c3ccncc3)no2)cc1OCC` came in with a percent remaining without NADPH of 70.3%.

`CN(C)c1oc(-c2ccc(OCc3ccc(Cl)cc3)cc2)nc1C#N` yielded a percent remaining without NADPH of 67.2%.

On to `CC[C@H]1CN2CCc3cc(OC)c(OC)cc3[C@@H]2C[C@@H]1C[C@H]1NCCc2cc(OC)c(OC)cc21`, for which the percent remaining without NADPH was 89.3%.

In the case of `O=c1[nH]c2c(s1)C(c1cccnc1)C1C3CCC(C3)C1S2` (centres undefined), the percent remaining without NADPH amounted to 71.9%.

Regarding `NC(=O)C1CCN(c2nc(-c3ccc(Br)cc3)cs2)CC1`, the percent remaining without NADPH is 62%.

`CN(C)c1nc(N)nc(CSc2nnnn2-c2cccc3ccccc23)n1` came in with a percent remaining without NADPH of 77.6%.

`CCCOc1ccc(-c2nc(OC)c3ccccc3n2)cc1` showed a percent remaining without NADPH of 81.5%.

The molecule `CN(C)C1=C(Cl)C(=O)N(c2ccc(Cl)c(Cl)c2)C1=O` had a percent remaining without NADPH of 36.9%.

`Cc1ccnc(NC(=O)CCCOc2cc(=O)n(C)c3ccccc23)c1` displayed a percent remaining without NADPH of 73.4%.

With `COc1nc(-c2ccccc2)nnc1-c1ccccc1`, the percent remaining without NADPH is 59.3%.

The molecule `N#Cc1ccccc1CSc1nc2ncc(Br)cc2[nH]1` showed a percent remaining without NADPH of 79.3%.

On to `Oc1cc(O)cc(/C=C/c2ccc(O)c(O)c2)c1`, for which the percent remaining without NADPH is 87.6%.

Consider `COc1ccc(C2c3c(ncn(CCN4CCOCC4)c3=N)Oc3ccc4ccccc4c32)cc1OC` (centres undefined), for which the percent remaining without NADPH was 87.2%.

Regarding `O=[N+]([O-])c1ccc(CN2CCOCCOCCN(Cc3ccc([N+](=O)[O-])cc3)CCOCC2)cc1`, the percent remaining without NADPH was 72.8%.

`c1ccc2c(Nc3nnc(-c4ccncc4)s3)cccc2c1`: the percent remaining without NADPH worked out at 72.1%.

In turn, `O=S(=O)(NC1CCCCC1N1CCOCC1)c1ccc(Cl)cc1` (centres undefined) gave a percent remaining without NADPH of 78.2%.

With `O=C(CSc1cccc2cccnc12)N1CCCC1`, the percent remaining without NADPH came to 78.5%.

`Cc1ccc(S(=O)(=O)n2c(N)nc3ccccc32)cc1` gave a percent remaining without NADPH of 79.3%.

Turning to `O=C(O)c1ccc(N2C(=O)/C(=C/c3ccc(-c4ccc([N+](=O)[O-])cc4)o3)C=C2c2ccccc2)cc1`, the percent remaining without NADPH amounted to 74.3%.

In turn, `CCCn1ncc(CN2CCCC(C(=O)c3cccc(OC(C)C)c3)C2)c1C` (centres undefined) yielded a percent remaining without NADPH of 79.4%.

`N#C/C(=C\c1ccc([N+](=O)[O-])o1)c1nc2ccccc2[nH]1` displayed a percent remaining without NADPH of 52.4%.

Take `COc1ccc(OC)c(S(=O)(=O)Nc2cnc3ccccc3c2)c1`: the percent remaining without NADPH stood at 71.5%.

Turning to `c1ccc(CC2CCN(c3ncnc4sccc34)CC2)cc1`, the percent remaining without NADPH is 54.9%.

For the molecule `Cc1cc(-c2nnc3n2CCCCC3)c(C)n1-c1ccccc1`, the percent remaining without NADPH worked out at 74.8%.

The molecule `Cc1ccc(NS(=O)(=O)c2ccc3c(c2)CCC(=O)N3)cc1C` had a percent remaining without NADPH of 66.3%.

Turning to `O=C1C2CC=CCC2C(=O)N1c1n[nH]c(-c2ccccc2)n1` (centres undefined), the percent remaining without NADPH was 71%.

`COc1ccccc1N(/N=C1\Sc2ccccc2C1=O)C(C)=O` showed a percent remaining without NADPH of 68.5%.
